Reference: ChEMBL document CHEMBL5316369, “From the Spectroscopic Reassessment of Authentic Alkaloid Samples to the Molecular Networking-Guided Discovery of Criophylline-Related Analogues from Callichilia inaequalis” (J Nat Prod, 2023)

System: Plasmodium falciparum
Assay: Antiparasitic activity against chloroquine-resistant Plasmodium falciparum FcB1 assessed as inhibition of parasite growth incubated for 24 hrs by liquid scintillation spectrometer analysis
Assay type: functional, organism-based
Settings: FcB1, 24 h

SMILES	IC50 [µM]
CC[C@@]12CC[C@@]34Nc5ccc([C@@H]6[C@H]7O[C@H]7[C@]7(CC)CC(C(=O)OC)=C8Nc9ccccc9[C@@]89CCN6[C@@H]79)cc5[C@@H]3CCN(C[C@H](OS(=O)(=O)O)[C@H]1O)[C@@H]24	14.3
CC[C@@]12CC[C@@]34Nc5ccc([C@@H]6[C@H]7O[C@H]7[C@]7(CC)CC(C(=O)OC)=C8Nc9ccccc9[C@@]89CCN6[C@@H]79)cc5[C@@H]3CCN(C[C@H]3O[C@H]31)[C@@H]24	54.5
CC[C@@]12CC[C@@]34Nc5ccc([C@@H]6[C@H]7O[C@H]7[C@]7(CC)CC(C(=O)OC)=C8Nc9ccccc9[C@@]89CCN6[C@@H]79)cc5[C@@H]3CCN(C[C@H](O)[C@H]1O)[C@@H]24	2.9
